“And” between values parts separate entries of the source, which are not always exact repeats. Identical values can stand only once. Like-named read-outs stand apart in the source and are kept apart here.
How the values were obtained:
[1] = In vitro metabolic stability in human liver microsomes; assay type: in vitro ADME; conditions: for % of the parent drug remaining / half-life at 1 µM / microsomal CLint at 1 µM: 1 µM; for % of the parent drug remaining: 60 min incubation; for half-life at 1 µM / microsomal CLint at 1 µM: human, human liver microsomes, pH 7.4; for half-life at 1 µM: 0.5 mg/mL protein, read-out: half-life (t1/2); for microsomal CLint at 1 µM: read-out: intrinsic clearance (CLint)
Protocol: An in vitro metabolism assay to study the phase I metabolism in the HLMs was in-house-developed. Optimization of the protocol included the test compound concentration (1, 5, 10 m and 50 µM) and extraction solvents (ACN and MeOH). […] The metabolic assay was initiated by the addition of 10 mM NADPH to the reaction solution and terminated after 0, 2.5, 5, 15, 30, 45, and 60 min via the addition of 200 µL of ice-cold MeOH containing the IS solution. The samples were than vortexed and spun for 15 min (14,000× g, 4 °C). The supernatant was collected, evaporated to dryness using the Concentrator plus (Eppendorf), and reconstituted with 100 µL of ACN/0.1% FA in water 10:90 (v:v). To ensure that the assay was performing adequately, the incubation of 1 µM diazepam at the same assay conditions as described was conducted, and the formation of its metabolites temazepam and nordazepam was monitored. A negative control included the absence of NADPH, the test compound, or HLMs during assay. […] The metabolic stability curves of the tested compounds were established by plotting the incubation time against the natural logarithm of the % parent drug remaining. The slope (k) of the linear part was utilized for the in vitro half-life (t1/2, min) as ln2/k. The V (µL/mg) was calculated as the volume of the reaction solution (100 µL) divided by the protein amount in the incubation (0.5 mg). The protein amount was predetermined by the supplier and the content was checked by using a Pierce™ BCA Protein Assay Kit (Thermo Fisher Scientific, Vienna, Austria) for each freshly opened tube. The intrinsic clearance (CLint, µL/min/mg) was calculated according to the following equation:(7) CLint=0.693/t1/2·V […]

DAT = conditions: read-out: Half-maximal inhibitory concentration, IC50, cited from earlier work
[2] = In vivo rat tissue biodistribution / neuroPK study, 4 h intravenous constant infusion; design: species or system Sprague-Dawley rats; conditions: rat; for Kp at 4 h / concentration at 4 h: Sprague-Dawley; for Kp at 4 h: brain (whole brain homogenate) relative to plasma, steady state, read-out: Total brain-to-plasma concentration ratio, Kp,brain; for concentration at 4 h: intravenous, 20 mg/kg; for order of Kp,tissue from highest to lowest: total tissue-to-plasma concentration ratio
Protocol: The results are summarized in Figure 4 and Table S2 within Supplementary Materials.
In order to minimize the usage of animals and gain high confidence in the tissue distribution, a 4 h constant intravenous infusion study was designed based on the systemic pharmacokinetic parameters determined elsewhere. The catheters were surgically implanted a day before the PK experiment. The rats (n = 3 per compound) were then individually placed into a CMA 120 system (CMA, Solna, Sweden). […] A dose of 20 mg/kg was administered as a combination of an initial short 10 min infusion as a loading dose followed by a constant infusion up to 4 h, targeting a steady-state total plasma concentration of around 1000 ng/mL for each compound (based on the pilot study results). Blood was collected into heparinized Eppendorf tubes via a femoral artery catheter at 0 (before infusion starts) 1, 2, 3, and 4 h after the infusion started and immediately centrifuged at 10,000 rpm for 5 min at +4 °C. Plasma was then collected and kept at −20 °C. At 4 h, the rats were anesthetized via inhalation of 2.5% isoflurane (Abbot Scandinavia, Solna, Sweden), balanced with 1.5 L/min oxygen, after which the terminal blood and tissue samples were collected. […] The tissue samples (brain, spinal cord, liver, and kidney) were rapidly removed, pre-weighed into a 2 mL hard tissue homogenizing tube with mini-beads, and subsequently homogenized in 2 volumes of MQ water using a 4-Place Bead Mill Homogenizer (VWR, Stockholm, Sweden) at the maximal speed for 2 min and thereafter kept at +4 °C. The plasma and tissue homogenate samples were stored at −20 °C until LC–MS analysis.
For all the rat plasma and CSF samples, an aliquot of 50 µL was spiked with 50 µL of 4% PA in water containing the IS solution to disrupt the drug–protein binding. For all rat tissue samples (brain, spinal cord, liver, and kidney), an aliquot of 50 µL was spiked with 50 µL ice-cold ACN containing the IS solution for protein precipitation. The samples were vortexed and spun down for 10 min (3000× g, 4 °C) and 25 µL of clear supernatant was diluted with 225 µL 0.1% FA in water to achieve 10% of ACN in the solution. SPE clean-up was performed using an Oasis PRiME HLB µElution 96-well plate, 3 mg (Waters Corporation, Vienna, Austria). The SPE cartridges were preconditioned and equilibrated with 1 × 200 µL ACN and 0.1% FA in water each. The samples were loaded onto the cartridges and washed with 2 × 200 µL 0.1% FA in water and 1 × 200 µL ACN/0.1% FA in water 10:90 (v:v). The analytes were eluted from the SPE cartridge into a collection plate with 2 × 25 µL ACN/0.1% FA in water 70:30 (v:v). All the samples were diluted with 50 µL of 0.1% FA in water and 10 µL of sample was injected onto the LC–HRMS system.
All samples, blanks, standards, and quality control samples in the respective matrices were analyzed on a UHPLC system (Dionex UltiMate 3000 RSLC series system, Thermo Fisher Scientific, Inc., Dreieich, Germany) coupled with a high-resolution mass spectrometer (maXis HD Q-TOF, Bruker Daltonics, Bremen, Germany) equipped with a heated electrospray ionization (ESI) source. Reversed-phase chromatographic separation was performed on a Kinetex Phenyl-Hexyl column (2.6 µm, 2.1 × 50 mm, Phenomenex, Torrance, CA, USA), equipped with a precolumn (2.6 µm, Phenomenex, Torrance, CA, USA), at a flow rate of 0.4 mL/min. Eluent A was water containing 0.1% FA and eluent B ACN. A multi-step gradient was optimized as follows: the initial mobile phase composition (5% eluent B) was held constant for 1 min, followed by a linear increase to 30% eluent B until minute 1.5, to 40% eluent B until minute 5.5, and to 95% eluent B until minute 6. After a hold time of 2 min, the column was re-equilibrated for 2.5 min at the initial conditions (5% eluent B). The column compartment and the autosampler were maintained at 40 °C and at 8 °C, respectively. […]

[3] = 4 h iv constant infusion 20 mg/kg
[4] = brain, 4 h iv constant infusion 20 mg/kg, n=3, read-out: Total concentration in brain
[5] = kidney, 4 h iv constant infusion 20 mg/kg, n=3, read-out: Total concentration in kidney
[6] = liver, 4 h iv constant infusion 20 mg/kg, n=3, read-out: Total concentration in liver
[7] = plasma, 4 h iv constant infusion 20 mg/kg, n=3, read-out: Total concentration in plasma
[8] = plasma, 4 h iv constant infusion 20 mg/kg, read-out: Total drug concentration in plasma, Ctot,plasma
[9] = plasma, 4 h iv constant infusion 20 mg/kg, read-out: Total steady-state plasma concentration, Cplasma,ss
[10] = plasma, mean, in vivo study, 4 h iv infusion 20 mg/kg, read-out: Unbound-drug concentration in plasma, Cu,plasma
[11] = spinal cord, 4 h iv constant infusion 20 mg/kg, n=3, read-out: Total concentration in spinal cord

SMILES | fold faster metabolism compared to R-modafinil ([1]; HLMs) [fold] | % of the parent drug remaining ([1]; HLMs) [%] | half-life at 1 µM ([1]; HLMs) [h] | microsomal CLint at 1 µM ([1]; HLMs) [µL/min/mg] | IC50 (DAT; ref Kristofova et al. 2018 [36]) [µM] | Kp at 4 h [2, 3] | concentration at 4 h [2, 4] [ng/g] | concentration at 4 h [2, 5] [ng/g] | concentration at 4 h [2, 6] [ng/g] | concentration at 4 h [2, 7] [ng/mL] | concentration at 4 h [2, 8] [µM] | concentration at 4 h [2, 9] [µM] | concentration at 4 h [2, 10] [µM] | concentration at 4 h [2, 11] [ng/g] | Total concentration in CSF ([2]; cisterna magna, 4 h iv infusion 20 mg/kg, single rats) | order of Kp,tissue from highest to lowest [2] | metabolized ([1]; HLMs, 5, 10 and 50 µM) [%] | IC50 (DAT; ref Loland et al. 2012 [27]) [µM] | concentration at 4 h ([2]; CSF, cisterna magna, 4 h iv infusion 20 mg/kg, single rats, read-out: Total concentration in CSF) [ng/mL] | concentration at 4 h ([2]; brain, single sample, rat brain after 4 h iv infusion 20 mg/kg, read-out: concentration in rat brain sample (Figure S4 chromatogram)) [ng/mL]
[O-][S@@+](Cc1cncs1)C(c1ccccc1)c1ccccc1 [S-CE-123] | 9.3 | 35 | 0.65 | 3.6 | 4.6 | 0.61 ± 0.1 | 820 | 1780 | 2730 | 1050 | 3.35 | 4.15 ± 2.2 | 0.839 | 1240 | 570 ng/mL and 104 ng/mL | liver > kidneys > spinal cord > brain |  |  |  | 
NC(=O)C[S@@+]([O-])C(c1ccccc1)c1ccccc1 [R-modafinil, reference compound] |  | 90 | 6.07 | […] |  | 0.29 ± 0.013 | 448 | 2540 | 2170 | 1010 | 3.69 | 5.57 ± 0.649 | 2.91 | 733 |  | kidneys > liver > spinal cord > brain | ≤ 10 | […] | 784 | 471

Reference: article PMC10707468, “Pharmacokinetics of Novel Dopamine Transporter Inhibitor CE-123 and Modafinil with a Focus on Central Nervous System Distribution” (International Journal of Molecular Sciences, 2023)
